Measured values taken from patent publication US9834535B2, “Sulfamate derivative compounds for use in treating or alleviating pain” (Bio-Pharm Solutions Co., Ltd., priority 2013, dated 2017).

How the values were obtained:
[1] = system: Vincristine-induced pain model; assay: Antiallodynic activity on vincristine-induced pain model (von Frey); format: in vivo, Sprague-Dawley rats; details: ip, rat, intraperitoneal, 0.5 h
Description: Male, Sprague-Dawley rats (300-320 g, Nara Bio, Korea) were habituated for 1 week before surgery and allowed free access to food and water throughout the experimentation. Room temperature and humidity were maintained at 24±2° C. and 50±10%, respectively.
Vincristine was established by the procedure of Natsuko et al. (2001) with minor modifications. Vincristine was intravenously infused continuously for 14 clays using a mini-osmotic pump as follows. Vincristine sulfate solution (Hospira, Australia) was diluted with 0.9% saline to 30 ug/kg, final close. The pumps (Alzet Model 2002, USA) were filled with the vincristine solution and primed by incubation at 37° C. for 4 h before the infusion. […]
Tactile sensitivity (Mechanical allodynia) was evaluated using von Frey monofilaments before and after treatment, and animals were used withdrawal threshold value was less than 4 g. […] The tactile sensitivity for ipsilateral hind paw was measured using the up-and-down method (Dixon, 1980) with seven von Frey monofilaments (0.4, 1, 2, 4, 6, 8, and 15 g) to 3 trials. […] The 50% paw withdrawal threshold for each paw was calculated using the following formula: [Xth] log=[vFr] log+ky where [vFr] is the force of the last von Frey used, k=0.2249 which is the average interval (in log units) between the von Frey monofilaments, and y is a value that depends upon the pattern of withdrawal responses (Dixon, 1980). […]

CFA-induced pain model = assay: Antiallodynic activity on Complete Freund's Adjuvant (CFA)-induced inflammatory pain model (von Frey); format: in vivo, Sprague-Dawley rats; details: ip; rat, intraperitoneal, von Frey, 0.5 h

CC1(C)O[C@@H](COS(N)(=O)=O)[C@H](c2ccccc2Cl)O1 [Example 2, ((4S,5S)-5-(2-chlorophenyl)-2,2-dimethyl-1,3-dioxolan-4-yl)methyl sulfamate]
ED50 [1]: 1 mg/kg
ED50 (CFA-induced pain model): 5.9 mg/kg
